Laboratory results as given in paper PMC12446476 (Nature Communications, 2025).
pIC50: −log10 of the molar value.

Columns and labels:
N. gonorrhoeae = test: In vitro time-kill assay; format: cell-based, Neisseria gonorrhoeae
Text: The 2024 WHO N. gonorrhoeae reference strains were used for quality control. Only whole MIC doubling dilutions are reported. Clinical breakpoints or the epidemiological cutoff (ECOFF, to indicate azithromycin resistance) from EUCAST (v14.0, https://www.eucast.org/clinical_breakpoints) were used to classify isolates as antimicrobial susceptible or resistant. […] Two times the standard inoculum defined by CLSI was used to establish consistent growth in untreated control samples for some strains. In vitro time-kill assays were performed according to CLSI guidelines[65] using Columbia Broth (BD Difco) supplemented with 1% IsoVitaleX Enrichment (BD). Viable bacterial counts were generated by plating 10-fold serially diluted samples on GC agar plates containing 1% IsoVitaleX Enrichment (BD).

[1] = biological target: recombinant NgFabI protein (Neisseria gonorrhoeae, UniProt A0ACH0F547); test: biochemical
Sequence of recombinant NgFabI protein (A0ACH0F547 entry or part of it): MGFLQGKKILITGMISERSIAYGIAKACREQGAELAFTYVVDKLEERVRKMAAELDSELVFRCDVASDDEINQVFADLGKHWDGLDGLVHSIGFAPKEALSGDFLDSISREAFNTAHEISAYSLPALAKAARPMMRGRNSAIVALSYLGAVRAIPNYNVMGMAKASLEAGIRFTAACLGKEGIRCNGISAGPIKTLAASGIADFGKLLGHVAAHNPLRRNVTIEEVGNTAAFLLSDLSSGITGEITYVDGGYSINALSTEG
Method: FabI activity was monitored by measuring NADH consumption. […] To initiate reactions, 50 µM NADH was added, and absorbance was monitored at 340 nm every 12 s for a total of 40 min using a Spectramax Plus 384 plate reader (Molecular Devices) at a controlled temperature of 30 °C. Data were analysed using the XLfit Microsoft Excel plugin (version 5.5). IC50 values were determined using a logistic sigmoid curve-fitting of the inhibitor dose response curves.

Structure (SMILES): Cc1c(CN(C)C(=O)/C=C/c2cnc3c(c2)N[C@H](C)[C@H](O)C(=O)N3)oc2ccccc12 [Debio 1453]
- Log10CFU/ml (time kill) (N. gonorrhoeae; AR Bank0179, 2X MIC, 0 hr): 5.66 Log10CFU/ml
- Log10CFU/ml (time kill) (N. gonorrhoeae; AR Bank0179, 2X MIC, 1 hr): 5.63 Log10CFU/ml
- Log10CFU/ml (time kill) (N. gonorrhoeae; AR Bank0179, 2X MIC, 3 hr): 5.09 Log10CFU/ml
- Log10CFU/ml (time kill) (N. gonorrhoeae; AR Bank0179, 2X MIC, 6 hr): 4.63 Log10CFU/ml
- Log10CFU/ml (time kill) (N. gonorrhoeae; AR Bank0179, 2X MIC, 10 hr): 2.00 Log10CFU/ml
- Log10CFU/ml (time kill) (N. gonorrhoeae; AR Bank0179, 2X MIC, 24 hr): 1.95 Log10CFU/ml
- Log10CFU/ml (time kill) (N. gonorrhoeae; AR Bank0179, 4X MIC, 0 hr): 5.46 Log10CFU/ml
- Log10CFU/ml (time kill) (N. gonorrhoeae; AR Bank0179, 4X MIC, 1 hr): 5.53 Log10CFU/ml
- Log10CFU/ml (time kill) (N. gonorrhoeae; AR Bank0179, 4X MIC, 3 hr): 4.84 Log10CFU/ml
- Log10CFU/ml (time kill) (N. gonorrhoeae; AR Bank0179, 4X MIC, 6 hr): 3.98 Log10CFU/ml
- Log10CFU/ml (time kill) (N. gonorrhoeae; AR Bank0179, 4X MIC, 10 hr): 1.95 Log10CFU/ml
- Log10CFU/ml (time kill) (N. gonorrhoeae; AR Bank0179, 4X MIC, 24 hr): 1.95 Log10CFU/ml
- Log10CFU/ml (time kill) (N. gonorrhoeae; AR Bank0179, 8X MIC, 0 hr): 5.74 Log10CFU/ml
- Log10CFU/ml (time kill) (N. gonorrhoeae; AR Bank0179, 8X MIC, 1 hr): 5.30 Log10CFU/ml
- Log10CFU/ml (time kill) (N. gonorrhoeae; AR Bank0179, 8X MIC, 3 hr): 4.73 Log10CFU/ml
- Log10CFU/ml (time kill) (N. gonorrhoeae; AR Bank0179, 8X MIC, 6 hr): 3.88 Log10CFU/ml
- Log10CFU/ml (time kill) (N. gonorrhoeae; AR Bank0179, 8X MIC, 10 hr): 1.95 Log10CFU/ml
- Log10CFU/ml (time kill) (N. gonorrhoeae; AR Bank0179, 8X MIC, 24 hr): 1.95 Log10CFU/ml
- Log10CFU/ml (time kill) (N. gonorrhoeae; AR Bank0179, 16X MIC, 0 hr): 5.69 Log10CFU/ml
- Log10CFU/ml (time kill) (N. gonorrhoeae; AR Bank0179, 16X MIC, 1 hr): 5.23 Log10CFU/ml
- Log10CFU/ml (time kill) (N. gonorrhoeae; AR Bank0179, 16X MIC, 3 hr): 4.75 Log10CFU/ml
- Log10CFU/ml (time kill) (N. gonorrhoeae; AR Bank0179, 16X MIC, 6 hr): 3.67 Log10CFU/ml
- Log10CFU/ml (time kill) (N. gonorrhoeae; AR Bank0179, 16X MIC, 10 hr): 1.95 Log10CFU/ml
- Log10CFU/ml (time kill) (N. gonorrhoeae; AR Bank0179, 16X MIC, 24 hr): 1.95 Log10CFU/ml
- Log10CFU/ml (time kill) (N. gonorrhoeae; ATCC 49226, 2X MIC, 0 hr): 6.10 Log10CFU/ml
- Log10CFU/ml (time kill) (N. gonorrhoeae; ATCC 49226, 2X MIC, 1 hr): 5.92 Log10CFU/ml
- Log10CFU/ml (time kill) (N. gonorrhoeae; ATCC 49226, 2X MIC, 3 hr): 5.64 Log10CFU/ml
- Log10CFU/ml (time kill) (N. gonorrhoeae; ATCC 49226, 2X MIC, 6 hr): 4.51 Log10CFU/ml
- Log10CFU/ml (time kill) (N. gonorrhoeae; ATCC 49226, 2X MIC, 10 hr): 2.60 Log10CFU/ml
- Log10CFU/ml (time kill) (N. gonorrhoeae; ATCC 49226, 2X MIC, 24 hr): 1.95 Log10CFU/ml
- Log10CFU/ml (time kill) (N. gonorrhoeae; ATCC 49226, 4X MIC, 0 hr): 6.07 Log10CFU/ml
- Log10CFU/ml (time kill) (N. gonorrhoeae; WHO V, 2X MIC, 0 hr): 5.66 Log10CFU/ml
- Log10CFU/ml (time kill) (N. gonorrhoeae; WHO V, 2X MIC, 1 hr): 5.58 Log10CFU/ml
- Log10CFU/ml (time kill) (N. gonorrhoeae; WHO V, 2X MIC, 3 hr): 4.90 Log10CFU/ml
- Log10CFU/ml (time kill) (N. gonorrhoeae; WHO V, 2X MIC, 6 hr): 4.14 Log10CFU/ml
- Log10CFU/ml (time kill) (N. gonorrhoeae; WHO V, 2X MIC, 10 hr): 3.53 Log10CFU/ml
- Log10CFU/ml (time kill) (N. gonorrhoeae; WHO V, 2X MIC, 24 hr): 1.95 Log10CFU/ml
- Log10CFU/ml (time kill) (N. gonorrhoeae; WHO V, 4X MIC, 0 hr): 5.59 Log10CFU/ml
- Log10CFU/ml (time kill) (N. gonorrhoeae; WHO V, 4X MIC, 1 hr): 5.34 Log10CFU/ml
- Log10CFU/ml (time kill) (N. gonorrhoeae; WHO V, 4X MIC, 3 hr): 4.37 Log10CFU/ml
- Log10CFU/ml (time kill) (N. gonorrhoeae; WHO V, 4X MIC, 6 hr): 4.03 Log10CFU/ml
- Log10CFU/ml (time kill) (N. gonorrhoeae; WHO V, 4X MIC, 10 hr): 2.00 Log10CFU/ml
- Log10CFU/ml (time kill) (N. gonorrhoeae; WHO V, 4X MIC, 24 hr): 1.95 Log10CFU/ml
- Log10CFU/ml (time kill) (N. gonorrhoeae; WHO V, 8X MIC, 0 hr): 5.60 Log10CFU/ml
- Log10CFU/ml (time kill) (N. gonorrhoeae; WHO V, 8X MIC, 1 hr): 4.90 Log10CFU/ml
- Log10CFU/ml (time kill) (N. gonorrhoeae; WHO V, 8X MIC, 3 hr): 4.34 Log10CFU/ml
- Log10CFU/ml (time kill) (N. gonorrhoeae; WHO V, 8X MIC, 6 hr): 4.03 Log10CFU/ml
- Log10CFU/ml (time kill) (N. gonorrhoeae; WHO V, 8X MIC, 10 hr): 1.95 Log10CFU/ml
- Log10CFU/ml (time kill) (N. gonorrhoeae; WHO V, 8X MIC, 24 hr): 1.95 Log10CFU/ml
- Log10CFU/ml (time kill) (N. gonorrhoeae; WHO V, 16X MIC, 0 hr): 5.81 Log10CFU/ml
- Log10CFU/ml (time kill) (N. gonorrhoeae; WHO V, 16X MIC, 1 hr): 5.00 Log10CFU/ml
- Log10CFU/ml (time kill) (N. gonorrhoeae; WHO V, 16X MIC, 3 hr): 4.27 Log10CFU/ml
- reduction in viable CFU counts (N. gonorrhoeae; within 24 h, all concentrations tested, as low as 2× MIC, 10 isolates): ≥ 3 log10
- pIC50 [1]: 9.22
